Measurements reported in patent US20150087627A1, “COMBINATION OF KINASE INHIBITORS AND USES THEREOF” (Intellikine LLC, priority 2011, published 2015).

Assays:
[1] = system: MDA-MB-361, MDA-MB-453 and SKBr3 breast cancer cells; assay: Western blot of PI3K pathway in cell lines with elevated PI3K α activity (FIG. 11); type: cell-based; conditions: cell lines with elevated PI3K α activity: MDA-MB-361, MDA-MB-453 (PIK3CA mutation), SKBr3 (HER2)
marginal zone B cells = assay: Marginal zone B cells in mouse spleen (FACS); type: in vivo; conditions: 60 mg/kg, spleens harvested 2 hrs after the last dose, FIG. 9
Protocol: The effect of the compounds on the localization/viability of marginal zone B cells in the spleen is also evaluated at the conclusion of treatment.
Spleens were harvested 2 hrs after the last dose, processed and stained with appropriate antibodies (marginal zone B cell: B220+;CD23−;CD21hi) and analyzed for staining on GUAVA EasyCyte FACS machine using Guava Cytosoft 5.2 software.

pAKT in PC3 cells = assay: Inhibition of PI3K pathway, pAKT Western blot; type: cell-based, human; conditions: PC3 model, FIG. 7
Protocol: Cells comprising one or more mutations in PI3Kα, including but not limited to breast cancer cells (e.g., MDA-MB-361, T47D, SKOV-3), and cells comprising one or more mutations in PTEN including but not limited to prostate cancer cells (e.g., PC3), are typically grown in cell growth media such as DMEM supplemented with fetal bovine serum and/or antibiotics, and grown to confluency. Cells are then treated with various concentrations of test compound for about 2 hours and subsequently lysed in cell lysis buffer. Lysates are subjected to SDS-PAGE followed by Western blot analysis to detect downstream signaling markers, including but not limited to pAKT(S473), pAKT(T308), pS6, and p4E-BP1.

Akt phosphorylation = assay: Western blot of Akt phosphorylation at serine 473 and threonine 308 (FIG. 7); type: cell-based; conditions: serine 473 versus threonine 308

Compound: Nc1nc2cc(-c3ccc4ncc(C(=O)N5CCOCC5)n4c3)ccc2o1 [Compound A]
- inhibition of the PI3K pathway [1]: inhibition of the PI3K pathway
- localization/viability of marginal zone B cells (marginal zone B cells): does not affect

Compound: CC(C)n1nc(-c2ccc3oc(N)nc3c2)c2c(N)ncnc21 [Compound B]
- inhibition of Akt phosphorylation, serine 473 vs threonine 308 (pAKT in PC3 cells): differential inhibition of Akt phosphorylation at serine 473 over threonine 308
- inhibition of Akt phosphorylation (Akt phosphorylation): differential inhibition of Akt phosphorylation at serine 473 over threonine 308
